Assay results published in PubChem BioAssay (NCI).
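Five compound concentrations were applied to cells in 96-well plates for 48 hours; endpoints were derived by simple linear interpolation of the resulting dose-response curve. GI50 = concentration required for 50% inhibition of growth. At the TGI there is no net growth.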

Columns and labels:
Test in all cases: NCI tumour cell line growth inhibition, 48 h
SR leukemia = system: SR leukemia
SW-620 colon = system: SW-620 colon
HT29 colon = system: HT29 colon
CCRF-CEM leukemia = system: CCRF-CEM leukemia
OVCAR-5 ovarian = system: OVCAR-5 ovarian
HS 578T breast = system: HS 578T breast
ACHN renal = system: ACHN renal
NCI-H522 lung = system: NCI-H522 lung
DU-145 prostate = system: DU-145 prostate
NCI/ADR-RES ovarian = system: NCI/ADR-RES ovarian

| Compound | GI50 (SR leukemia) [µM] | TGI (SR leukemia) [µM] | GI50 (SW-620 colon) [µM] | TGI (SW-620 colon) [µM] | GI50 (HT29 colon) [µM] | TGI (HT29 colon) [µM] | GI50 (CCRF-CEM leukemia) [µM] | TGI (CCRF-CEM leukemia) [µM] | GI50 (OVCAR-5 ovarian) [µM] | TGI (OVCAR-5 ovarian) [µM] | GI50 (HS 578T breast) [µM] | TGI (HS 578T breast) [µM] | GI50 (ACHN renal) [µM] | TGI (ACHN renal) [µM] | GI50 (NCI-H522 lung) [µM] | TGI (NCI-H522 lung) [µM] | GI50 (DU-145 prostate) [µM] | TGI (DU-145 prostate) [µM] | GI50 (NCI/ADR-RES ovarian) [µM] | TGI (NCI/ADR-RES ovarian) [µM] |
| --- | --- | --- | --- | --- | --- | --- | --- | --- | --- | --- | --- | --- | --- | --- | --- | --- | --- | --- | --- | --- |
| CCCCCCCCCCCCCOC(=O)c1c(C)[nH]c(/C=C2\N=C(c3ccc[nH]3)C=C2OC)c1C | < 0.0118 | 0.145 | 0.0204 | > 37.1 | < 0.0126 | > 100 | 0.0303 | > 100 | 0.0929 | > 100 | 0.0853 | 5.47 | 0.139 | 12.5 | 0.215 | > 64.3 | 0.0427 | > 78.9 | 0.116 | > 100 |
| COc1ccc(C(=O)/C=C/c2cc3ccccc3[nH]c2=O)cc1 | 17.3 | > 100 | 18.4 | 33.2 | 19.3 | > 80.5 | 22.3 | > 100 | 21.9 | > 56.8 | 20.8 | > 100 | 22.9 | > 55.1 | 13.5 | 24.5 | 17.8 | 41.9 | 18.9 | 42.9 |
| CCN(Cc1ccc(F)cc1)c1ccc(CO)c(Cl)c1 | 15.3 | 51.5 | 0.838 | > 41 | 3.02 | 16.1 | 15.9 | 62.6 | 0.103 | 0.525 | 17.8 | > 66.2 | 10.2 | > 48.6 | 14.5 | 40.1 | 15.2 | > 49.2 | 11.6 | 34.4 |
| O=c1[nH]cnc2c(C3OC(CO)C(O)C3O)[nH]nc12 (stereo not given) | – | > 100 | – | > 100 | – | > 100 | – | > 100 | – | > 100 | – | > 100 | – | > 100 | – | 42.7 | – | 38.2 | – | > 100 |
| O=C(O)C1C2C=CC(O2)C1C(=O)Nc1ccccc1 (stereo not given) | – | > 100 | – | > 100 | – | > 100 | – | > 100 | – | > 100 | – | > 100 | – | > 100 | – | > 100 | – | > 100 | – | > 100 |
| CCC1CCc2nc3sc(C(=O)Nc4ccccc4F)c(N)c3cc2C1 (stereo not given) | 0.284 | 38.1 | 0.819 | > 100 | 0.915 | > 100 | 1.72 | > 100 | 22.8 | > 100 | 2.13 | > 100 | > 100 | > 100 | 24.8 | > 100 | 2.82 | > 100 | 9.5 | > 100 |
